# Test results reported in patent US5216001A, “Indole derivatives” (H. Lunbeck A/S, priority 1990, dated 1993).
# Read-outs that look alike come from different tables or passages of the source.
# Legend:
# [1] = biological target: α1 adrenoceptors; assay: inhibition of 3H-prazosin binding to α1 adrenoceptors in rat brain in vitro; conditions: 3H-prazosin 0.25 nM, rat brain membranes, read-out: Binding IC50, 3H Praz.
# Protocol: INHIBITION OF ^3 H-PRAZOSIN BINDING TO α1 ADRENOCEPTORS IN RAT BRAIN IN VITRO
# Method and results in Hyttel and Larsen, J. Neurochem, 44, 1615-1622, 1985; Skarsfeldt and Hyttel, Eur. J. Pharmacol. 125, 323-340, 1986.
# Male Wistar (Mol:Wist) rats (125-200 g) are sacrificed and brain tissue is dissected and weighed. The tissue is homogenized (Ultra Turrax, 10 sec.) in 10 ml of ice-cold […] Tris buffer pH 7.7 (at 25° C.). The homogenate is centrifuged twice at 20,000 g for 10 min. at 4° C. with rehomogenization of the pellet in 10 ml ice-cold buffer. The final pellet is homogenized in 400 vol (w/v) ice-cold buffer.
# Incubation tubes kept on ice in triplicate receive 100 μl of drug solution in water (or water for total binding) and 4000 μl of tissue suspension (final tissue content corresponds to 10 mg original tissue). The binding experiment is initiated by addition of 100 μl of ^3 H-Prazosin (final concentration 0.25 nM) and by placing the tubes in a 25° C. water bath. After incubation for 20 min. the samples are filtered under vacuum (0-50 mBar) through Whatman GF/F filters (25 mm). The tubes are rinsed with 5 ml ice-cold buffer which then are poured on the filters. Thereafter, the filters are washed with 5 ml of buffer. The filters are placed in counting vials and 4 ml of appropriate scintillation fluid (e.g. Picofluor™15) are added. After shaking for 1 h and storage 2 hrs in the dark the content of radioactivity is determined by liquid scintillation counting. Specific binding is obtained by subtracting the nonspecific binding in the presence of 1 μM of Prazosin.
# For determination of the inhibition of binding five concentrations of drugs covering 3 decades are used.
# The measured cpm are plotted against drug concentration on semilogarithmic paper and the best fitting S-shaped curve is drawn. The IC50 value is determined as the concentration at which the binding is 50% of the total binding in control samples minus the nonspecific binding in the presence of 1 μM of Prazosin. ^3 H-Prazosin=[furoyl-5-^3 H]-Prazosin from New England Nuclear, specific activity approximately 20 Ci/mmol.
# [2] = biological target: T1, DA D-2 (Rattus norvegicus, UniProt P61169); assay: antagonism of pergolide-induced circling behaviour in rats with unilateral 6-OHDA lesions; assay type: in vivo; conditions: sc, read-out: Pergolide rot. inhibition ED50, 2h (sc), 6-OHDA lesions, s.c., 2 h before pergolide
# T1 construct: Male Wistar rats (Mol:Wist) weighing about 200 g at the time of operation are used; from tissue; host or cells: living male Wistar (Mol:Wist) rats with unilateral 6-OHDA lesions (in vivo, endogenous receptor)
# Protocol: ANTAGONISM OF PERGOLIDE-INDUCED CIRCLING BEHAVIOUR IN RATS WITH UNILATERAL 6-OHDA LESIONS
# Dopamine (DA) D-2 agonists induce contralateral circling behaviour in rats with 6-OHDA lesions. Pergolide-induced circling is antagonized by DA D-2 antagonists.
# Male Wistar rats (Mol:Wist) weighing about 200 g at the time of operation are used. Unilateral lesions are made in pentobarbital anaesthetized rats by injection of 6-OHDA. HCl 9.7 μg/μl (equivalent to 8 μg free base) per 4 min. into the rostral tip of the substantia nigra. The saline solution contains ascorbic acid 0.2 mg/ml, is bubbled with N2 and is kept ice-cold. The experiments are done when stable contralateral circling responses to pergolide (0.05 μmol/kg, s.c.) are obtained. The circling response is measured in rotometer bowls. Only rats showing more than 400 complete turns in 2 hrs control session are used. Dose-response curves are obtained by alternating test and control sessions on a weekly basis. The antagonists are injected s.c. 2 hrs before the agonist. The effect of individual doses of test drugs is calculated as per cent of the mean effect of control sessions one week before and one week after the test session for each rat. ED50 values are calculated by log-probit analysis. Four to eight rats are used at each dosage.
# [3] = biological target: T2, 5-HT2 (Rattus norvegicus, UniProt P14842); assay: quipazine inhibition (quipazine-induced head twitches in rats); assay type: in vivo; conditions: sc, s.c. (marked in cell), 24 h before quipazine, read-out: Quipazine inhibition ED50, 24h (sc)
# T2 construct: Four rats, male Wistar (Mol:Wist) SPF rats weighing 170-240 g; from tissue; host or cells: living male Wistar (Mol:Wist) SPF rats (in vivo, endogenous receptor)
# [4] = animal test, Colpart et al. 1985; cited from earlier work
# [5] = Janssen 1988; cited from earlier work
# [6] = Klieser and Strauss 1988; cited from earlier work
# [7] = biological target: T2, 5-HT2; assay: quipazine inhibition (quipazine-induced head twitches in rats); assay type: in vivo; conditions: for ED50: sc, read-out: Quipazine inhibition ED50, 2h (sc), s.c., 2 h before quipazine
# Protocol: Quipazine is a 5-HT2 agonist, which induces head twitches in rats. The test is a test for 5-HT2 -antagonistic effect testing the ability to inhibit head twitches. The method and test results for some reference substances are published by Arnt et al. (Drug Development Research, 16, 59-70, 1989).
# Test substance is injected s.c. 2 hrs before or p.o. 24 hrs before quipazine administration (6.8 mg/kg, s.c., dimaleate). Four rats, male Wistar (Mol:Wist) SPF rats weighing 170-240 g, are used at each dose level. A control group is included each test day. By repeated testing (2, 24 hrs) the control group is the same, however. After quipazine administration the rats are individually placed in the observation cages and head twitches are counted in an observation period of 30-40 min. after injection of quipazine.
# Total number of head twitches in each group is calculated and the result for each dose is expressed as per cent of the response in the control group. ED50 values are calculated by log-probit analysis. The test must be repeated if the average number of head twitches is lower than 9 in the control group.
# [8] = Bersani et al. 1990; cited from earlier work
# T2 sequence (P14842 whole entry): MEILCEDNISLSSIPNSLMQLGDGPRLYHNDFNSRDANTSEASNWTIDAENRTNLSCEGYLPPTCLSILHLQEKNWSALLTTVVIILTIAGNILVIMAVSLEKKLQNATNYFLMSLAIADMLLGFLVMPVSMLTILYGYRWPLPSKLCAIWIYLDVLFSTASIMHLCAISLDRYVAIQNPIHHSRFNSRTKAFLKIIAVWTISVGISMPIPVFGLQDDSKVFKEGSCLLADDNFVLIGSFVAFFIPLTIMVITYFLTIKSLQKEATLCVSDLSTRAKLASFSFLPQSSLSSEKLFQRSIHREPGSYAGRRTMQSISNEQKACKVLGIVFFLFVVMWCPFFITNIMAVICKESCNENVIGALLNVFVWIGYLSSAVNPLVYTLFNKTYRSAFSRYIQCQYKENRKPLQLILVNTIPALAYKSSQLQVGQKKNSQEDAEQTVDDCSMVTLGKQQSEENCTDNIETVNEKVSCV
# T1 sequence (P61169 whole entry): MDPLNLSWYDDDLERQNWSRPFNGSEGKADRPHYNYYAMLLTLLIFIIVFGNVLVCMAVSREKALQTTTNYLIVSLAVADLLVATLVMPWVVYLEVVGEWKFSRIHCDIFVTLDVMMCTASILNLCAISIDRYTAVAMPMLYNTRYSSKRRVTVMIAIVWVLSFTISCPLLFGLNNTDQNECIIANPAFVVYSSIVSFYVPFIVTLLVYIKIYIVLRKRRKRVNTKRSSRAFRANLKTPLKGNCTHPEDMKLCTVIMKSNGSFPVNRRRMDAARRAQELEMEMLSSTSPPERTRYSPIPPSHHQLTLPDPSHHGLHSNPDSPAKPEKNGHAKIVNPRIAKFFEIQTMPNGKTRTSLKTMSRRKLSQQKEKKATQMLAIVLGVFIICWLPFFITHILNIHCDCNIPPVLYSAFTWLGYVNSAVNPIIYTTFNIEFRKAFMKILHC
ED50 [3] [µmol/kg],SMILES,IC50 [1] [µM],ED50 [2] [µmol/kg],effects reminiscent of anxiolytic drug activity [4],quality of sleep [5],antidepressant effect and depressive symptoms of schizophrenia [6],ED50 [7] [µmol/kg],neuroleptic-induced parkinsonism [8],"Quipazine inhibition ED50, 24h (po) ([7]; p.o., 24 h before quipazine) [µmol/kg]"
0.98,Cc1nc2sccn2c(=O)c1CCN1CCC(=C(c2ccc(F)cc2)c2ccc(F)cc2)CC1 [ritanserin],0.047,> 21,exert effects in an animal test reminiscent of anxiolytic drug activity,improve the quality of sleep,has been shown to be an antidepressant and to improve depressive symptoms of schizophrenia,0.08,relieve neuroleptic-induced parkinsonism,
,"O=C1NCCN1CCN1CCC(c2cn(-c3ccc(F)cc3)c3ccc(Cl)cc23)CC1 [sertindole (Lu 23-174), 5-chloro-1-(4-fluorophenyl)-3-[1-[2-(2-imidazolidinon-1-yl)ethyl]-4-piperidyl]-1H-indole, reference compound]",0.0034,7.2,,,,0.04,,0.04
